Data reported in patent US20230159467A1, “NOVEL COMPOUNDS USEFUL IN THE TREATMENT AND/OR PREVENTION OF A DISEASE, DISORDER OR CONDITION ASSOCIATED WITH ANGIOTENSIN II” (Vicore Pharma AB, priority 2020, published 2023).

Tests used:
CYP3A [1] = assay: CYP450 inhibition assay, pooled human liver microsomes, testosterone substrate; details: both, human, pooled human liver microsomes, pH 7.4, probe testosterone, CYP 450 Inhibition CYP3A testosterone, at 10 μM
CYP3A [2] = assay: CYP450 inhibition assay, pooled human liver microsomes, midazolam substrate; details: both, human, pooled human liver microsomes, pH 7.4, probe midazolam
CYP2C8 = target: T1, CYP2C8 (Homo sapiens, UniProt P10632); assay: CYP450 inhibition assay, pooled human liver microsomes, amodiaquine substrate; details: both, human, pooled human liver microsomes, pH 7.4, probe amodiaquine
T1 sequence (P10632 1-490): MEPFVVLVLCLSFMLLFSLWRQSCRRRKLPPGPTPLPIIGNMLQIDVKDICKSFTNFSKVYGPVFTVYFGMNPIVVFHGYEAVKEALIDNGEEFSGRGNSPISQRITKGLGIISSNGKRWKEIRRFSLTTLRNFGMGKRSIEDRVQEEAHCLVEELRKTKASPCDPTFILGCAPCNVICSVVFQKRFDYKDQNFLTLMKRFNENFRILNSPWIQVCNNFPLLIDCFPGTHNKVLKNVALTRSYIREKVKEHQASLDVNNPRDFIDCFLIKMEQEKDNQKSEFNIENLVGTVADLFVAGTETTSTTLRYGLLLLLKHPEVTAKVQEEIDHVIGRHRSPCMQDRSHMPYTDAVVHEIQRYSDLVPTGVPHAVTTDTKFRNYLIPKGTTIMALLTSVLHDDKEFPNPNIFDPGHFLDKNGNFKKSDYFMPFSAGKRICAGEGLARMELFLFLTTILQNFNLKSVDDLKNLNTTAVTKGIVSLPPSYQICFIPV

CYP1A = target: T2, CYP1A (Homo sapiens, UniProt P05177); assay: CYP450 inhibition assay, pooled human liver microsomes, phenacetin substrate; details: both, human, pooled human liver microsomes, pH 7.4, probe phenacetin
T2 sequence (P05177 1-516): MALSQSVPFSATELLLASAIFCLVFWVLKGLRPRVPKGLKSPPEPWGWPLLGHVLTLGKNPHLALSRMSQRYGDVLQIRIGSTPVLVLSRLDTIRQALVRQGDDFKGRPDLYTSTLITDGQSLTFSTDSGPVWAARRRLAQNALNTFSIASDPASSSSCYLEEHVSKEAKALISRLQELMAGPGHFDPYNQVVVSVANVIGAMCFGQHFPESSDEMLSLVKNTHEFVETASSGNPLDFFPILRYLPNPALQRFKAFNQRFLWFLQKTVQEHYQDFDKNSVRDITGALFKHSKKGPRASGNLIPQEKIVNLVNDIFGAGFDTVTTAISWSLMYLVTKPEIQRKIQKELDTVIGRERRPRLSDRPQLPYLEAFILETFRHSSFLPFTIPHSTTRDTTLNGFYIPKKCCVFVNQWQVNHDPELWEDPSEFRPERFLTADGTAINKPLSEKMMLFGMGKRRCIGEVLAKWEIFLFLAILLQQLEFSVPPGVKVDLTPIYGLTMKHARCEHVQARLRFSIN

human AT2R = target: T3, human AT2R (Homo sapiens, UniProt P50052); assay type: binding; details: HEK-293 cell membranes
T3 construct: host or cells: HEK-293
T3 sequence (P50052 1-363): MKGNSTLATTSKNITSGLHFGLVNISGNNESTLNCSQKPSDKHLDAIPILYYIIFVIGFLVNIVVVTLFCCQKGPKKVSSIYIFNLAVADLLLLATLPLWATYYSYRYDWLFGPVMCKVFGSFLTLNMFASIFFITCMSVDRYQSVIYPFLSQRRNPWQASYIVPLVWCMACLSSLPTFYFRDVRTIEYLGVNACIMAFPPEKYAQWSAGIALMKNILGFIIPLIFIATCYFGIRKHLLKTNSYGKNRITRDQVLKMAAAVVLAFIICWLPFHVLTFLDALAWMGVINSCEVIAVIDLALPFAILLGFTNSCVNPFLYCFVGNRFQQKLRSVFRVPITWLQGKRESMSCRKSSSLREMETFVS

CYP2D6 = CYP2D6 (Homo sapiens, UniProt P10635); assay: CYP450 inhibition assay, pooled human liver microsomes, dextromethorphan substrate; details: both, human, pooled human liver microsomes, pH 7.4, probe dextromethorphan
CYP2C9 = CYP2C9 (Homo sapiens, UniProt P11712); assay: CYP450 inhibition assay, pooled human liver microsomes, diclofenac substrate; details: both, human, pooled human liver microsomes, pH 7.4, probe diclofenac
CYP2B6 = target: T4, CYP2B6 (Homo sapiens, UniProt P20813); assay: CYP450 inhibition assay, pooled human liver microsomes, bupropion substrate; details: both, human, pooled human liver microsomes, pH 7.4, probe bupropion
T4 sequence (P20813 1-491): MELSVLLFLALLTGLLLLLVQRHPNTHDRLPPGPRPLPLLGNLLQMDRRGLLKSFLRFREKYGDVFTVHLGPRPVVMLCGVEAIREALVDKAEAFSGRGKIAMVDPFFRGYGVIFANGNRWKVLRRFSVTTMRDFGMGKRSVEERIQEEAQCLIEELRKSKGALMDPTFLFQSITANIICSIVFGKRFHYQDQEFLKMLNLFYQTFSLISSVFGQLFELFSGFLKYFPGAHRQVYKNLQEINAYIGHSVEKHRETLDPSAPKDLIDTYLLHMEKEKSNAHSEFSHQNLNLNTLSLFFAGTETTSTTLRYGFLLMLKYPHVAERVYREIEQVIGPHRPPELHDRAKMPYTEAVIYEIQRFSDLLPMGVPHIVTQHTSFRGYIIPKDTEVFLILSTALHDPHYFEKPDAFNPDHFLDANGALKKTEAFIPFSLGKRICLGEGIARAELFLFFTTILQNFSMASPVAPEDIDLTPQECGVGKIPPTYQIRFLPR

CYP2C19 = CYP2C19 (Homo sapiens, UniProt P33261); assay: CYP450 inhibition assay, pooled human liver microsomes, omeprazole substrate; details: both, human, pooled human liver microsomes, pH 7.4, probe omeprazole
human AT1R = target: T5, human AT1R (Homo sapiens, UniProt P30556); assay type: binding; details: HEK-293 cell membranes
T5 construct: host or cells: HEK-293
T5 sequence (P30556 1-359): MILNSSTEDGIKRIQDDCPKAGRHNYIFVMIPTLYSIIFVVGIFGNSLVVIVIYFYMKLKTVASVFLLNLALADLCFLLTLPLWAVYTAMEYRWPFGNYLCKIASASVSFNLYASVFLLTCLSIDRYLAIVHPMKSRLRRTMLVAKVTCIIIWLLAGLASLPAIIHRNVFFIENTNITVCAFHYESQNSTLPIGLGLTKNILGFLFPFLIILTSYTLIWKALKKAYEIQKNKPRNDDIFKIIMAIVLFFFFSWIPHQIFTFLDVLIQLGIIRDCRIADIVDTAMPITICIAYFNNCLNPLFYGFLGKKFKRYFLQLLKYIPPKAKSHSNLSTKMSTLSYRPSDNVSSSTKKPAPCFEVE

[3] = Stability in human liver microsomes; assay type: in vitro ADME; details: half-life
Method: Stability in liver microsomes. Human, mouse and rat liver microsomes were used to assess the metabolic stability for the compounds. Metabolic stability was determined in 0.5 mg/mL human, mouse or rat liver microsomes at a compound concentration of 1 μM in 100 mM potassium phosphate buffer (pH 7.4) in a total incubation volume of 500 μL by Eurofins. The assay matrix was: human liver microsomes: mixed gender and pool of 50, rat liver microsomes: male, Sprague-Dawley, pool of 100 or more and mouse liver microsomes: male,CD-1, pool of 250 or more. Final microsomal protein concentration: 0.1mg/mL. The test concentration was 0.1 μM with 0.01% DMSO, 0.25% acetonitrile and 0.25% methanol by default. […] The reaction was initiated by adding NADPH-generating system and was incubated for 0, 15, 30, 45, and 60 min. The reaction was stopped by transferring the incubation mixture to acetonitrile/methanol. Samples were then mixed and centrifuged. Four reference compounds were tested in each assay. Propranolol and imipramine are relatively stable, whereas verapamil and terfenadine are readily metabolized inhuman liver microsomes. Samples were analyzed by HPLC-MS/MS using selected reaction monitoring. The HPLC system consisted of a binary LC pump with autosampler, a C-18 column, and a gradient. Peak areas corresponding to the test compound were recorded. The compound remaining was calculated by comparing the peak area at each time point to time zero. The half-life was calculated from the slope of the initial linear range of the logarithmic curve of compound remaining (%) vs. time, assuming first order kinetics. In addition, the intrinsic clearance (Clint) was calculated.^19,20

Sequence of CYP2C9 (P11712 whole entry): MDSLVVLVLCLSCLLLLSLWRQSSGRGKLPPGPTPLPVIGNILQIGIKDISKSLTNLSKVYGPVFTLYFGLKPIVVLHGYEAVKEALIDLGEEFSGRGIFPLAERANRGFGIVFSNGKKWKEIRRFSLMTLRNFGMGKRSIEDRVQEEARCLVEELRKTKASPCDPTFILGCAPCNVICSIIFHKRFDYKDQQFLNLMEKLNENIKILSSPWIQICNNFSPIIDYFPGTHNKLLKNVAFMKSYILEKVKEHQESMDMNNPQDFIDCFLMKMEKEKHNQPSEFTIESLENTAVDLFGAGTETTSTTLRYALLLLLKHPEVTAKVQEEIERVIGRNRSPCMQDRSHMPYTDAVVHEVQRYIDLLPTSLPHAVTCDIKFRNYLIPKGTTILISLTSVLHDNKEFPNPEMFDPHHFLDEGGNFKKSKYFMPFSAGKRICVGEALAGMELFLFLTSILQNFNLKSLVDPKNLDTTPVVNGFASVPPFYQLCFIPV
Sequence of CYP2C19 (P33261 whole entry): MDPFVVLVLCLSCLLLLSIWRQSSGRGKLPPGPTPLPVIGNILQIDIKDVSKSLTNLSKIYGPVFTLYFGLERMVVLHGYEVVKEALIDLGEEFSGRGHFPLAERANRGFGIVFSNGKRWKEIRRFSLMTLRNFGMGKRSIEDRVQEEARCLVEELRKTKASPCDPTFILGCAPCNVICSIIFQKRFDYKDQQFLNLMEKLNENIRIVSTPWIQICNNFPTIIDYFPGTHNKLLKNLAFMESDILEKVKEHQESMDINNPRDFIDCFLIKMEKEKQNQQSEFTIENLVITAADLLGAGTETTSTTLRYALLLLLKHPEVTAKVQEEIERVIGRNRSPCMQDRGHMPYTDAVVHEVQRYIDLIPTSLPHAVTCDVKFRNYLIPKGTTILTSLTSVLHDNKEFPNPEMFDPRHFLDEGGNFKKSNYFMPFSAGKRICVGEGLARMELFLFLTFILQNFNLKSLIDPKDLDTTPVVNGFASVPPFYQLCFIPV
Sequence of CYP2D6 (P10635 whole entry): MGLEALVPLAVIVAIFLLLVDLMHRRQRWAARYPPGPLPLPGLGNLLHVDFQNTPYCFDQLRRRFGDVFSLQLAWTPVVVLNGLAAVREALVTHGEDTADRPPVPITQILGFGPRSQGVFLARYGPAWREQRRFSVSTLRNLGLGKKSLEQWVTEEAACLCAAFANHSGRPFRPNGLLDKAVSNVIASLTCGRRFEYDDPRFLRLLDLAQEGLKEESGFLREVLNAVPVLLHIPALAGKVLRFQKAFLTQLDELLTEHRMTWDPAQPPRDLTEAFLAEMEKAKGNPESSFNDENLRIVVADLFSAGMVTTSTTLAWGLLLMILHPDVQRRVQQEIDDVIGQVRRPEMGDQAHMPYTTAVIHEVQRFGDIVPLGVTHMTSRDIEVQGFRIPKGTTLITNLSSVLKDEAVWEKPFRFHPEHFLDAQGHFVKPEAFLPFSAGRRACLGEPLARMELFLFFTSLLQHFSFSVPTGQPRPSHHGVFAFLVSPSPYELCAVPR

## COC(=O)NS(=O)(=O)c1ccc(CC(C)C)cc1-c1ccc(Cn2ccnc2C(C)(C)F)cc1 [Example 34, Methyl ((4′-((2-(2-fluoropropan-2-yl)-1H-imidazol-1-yl)methyl)-5-isobutyl-[1,1′-biphenyl]-2-yl)sulfonyl)carbamate]
CYP3A [1]
  inhibition at 10 min, 10 µM: 18.1%
CYP3A [2]
  inhibition at 10 min, 10 µM: 9.98%
CYP2C8
  inhibition at 10 min, 10 µM: 70.3%
CYP1A
  inhibition at 10 min, 10 µM: -5.97%
Human AT2R
  Ki: 2.3 nM
CYP2D6
  inhibition at 10 min, 10 µM: 16.2%
CYP2C9
  inhibition at 10 min, 10 µM: 42.2%
CYP2B6
  inhibition at 10 min, 10 µM: 6.9%
CYP2C19
  inhibition at 10 min, 10 µM: 43.3%
Human AT1R
  Ki: 15000 nM

## CCCCOC(=O)NS(=O)(=O)c1ccc(CC(C)C)cc1-c1ccc(Cn2ccnc2C(C)(C)F)cc1 [Example 32, Butyl ((4′-((2-(2-fluoropropan-2-yl)-1H-imidazol-1-yl)methyl)-5-isobutyl-[1,1′-biphenyl]-2-yl)sulfonyl)carbamate]
CYP3A [1]
  inhibition at 10 min, 10 µM: 8.43%
CYP3A [2]
  inhibition at 10 min, 10 µM: -11.7%
CYP2C8
  inhibition at 10 min, 10 µM: 66.5%
CYP1A
  inhibition at 10 min, 10 µM: -3.04%
CYP2D6
  inhibition at 10 min, 10 µM: 17.1%
CYP2C9
  inhibition at 10 min, 10 µM: 43.7%
CYP2B6
  inhibition at 10 min, 10 µM: 29.8%
CYP2C19
  inhibition at 10 min, 10 µM: 31%

## CCCc1ccc(S(=O)(=O)[N-]C(=O)OC)c(-c2ccc(Cn3ccnc3C(C)(C)O)cc2)c1.[K+] [Example 30B, Potassium (methoxycarbonyl) ((4′-((2-(2-hydroxypropan-2-yl)-1H-imidazol-1-yl)methyl)-5-propyl-[1,1′-biphenyl]-2-yl)sulfonyl)amide]
Human AT2R
  Ki: 4.6 nM
[3]
  Stability in liver microsomes HLM: >60 min
Human AT1R
  Ki: 1000 nM

## CCCCOC(=O)NS(=O)(=O)c1sc(CC(C)C)nc1-c1ccc(Cn2ccnc2C(C)(C)O)cc1 [Example 17A, Butyl ((4-(4-((2-(2-hydroxypropan-2-yl)-1H-imidazol-1-yl)methyl)phenyl)-2-isobutylthiazol-5-yl)sulfonyl)carbamate]
Human AT2R
  Ki: 12 nM
[3]
  Stability in liver microsomes HLM: >60 min
Human AT1R
  Ki: 1000 nM

## CCCCOC(=O)NS(=O)(=O)c1sc(CC(C)C)nc1-c1ccc(Cn2ccnc2-c2nccs2)cc1 [Example 16, Butyl ((2-isobutyl-4-(4-((2-(thiazol-2-yl)-1H-imidazol-1-yl)methyl)phenyl)thiazol-5-yl)su Ifonyl)carbamate]
Human AT2R
  Ki: 41 nM
[3]
  Stability in liver microsomes HLM: >60 min
Human AT1R
  Ki: 1000 nM
